Assays:
[1] = system: Mucor piriformis (MUCOPI) on strawberries; assay: In vivo disease severity on wound-inoculated strawberries, benzoxaborole and CO2 chamber treatment
From the text: (§1) The following experiments were used to determine synergy between benzoxaborole Compounds A, B, and/or C and preservative gases, such as carbon dioxide (CO2) and sulfur dioxide (SO2). Specific rates or any other unique conditions are noted within the corresponding results tables. Each experiment comprised an air-tight 36 liter (L) chamber (Fisher Scientific, P/N: 08-642-23C), fitted with a bulkhead septum port (Swagelok, P/N: SS-400-61, Solon, OH) used for treatment delivery, as well as for monitoring (using needle extraction) carbon dioxide (CO2), sulfur dioxide (SO2), oxygen (O2) or other headspace samples. A variable speed fan (Thermaltake, Mobile Fan II, P/N: A1888, Taipei City, Taiwan) set to low was also used to circulate the headspace atmosphere.
(§2) For in vivo experiments, eight strawberry fruits per repetition were surface sterilized with a 70% ethanol solution. After sterilization, the strawberries were rinsed twice with deionized water. Each strawberry fruit was wounded using a T15 screwdriver tip to a uniform depth of eight mm (8 mm). Each fruit wound was inoculated with 20 μL of 1×10^5 spores/ml pathogen spore suspension of B. cinerea or M. piriformis. The strawberries were then placed with the stem facing downwards inside a 1-pound strawberry clamshell.
(§3) For treatment, the inoculated agar plates and clamshells containing fruits (e.g., strawberries and grapes) were placed inside a 36 L experimental chamber unit, which was then sealed prior to commencement of compound treatments. The chamber remained sealed throughout the duration of the experiment except for addition of treatment to the chamber, and post-treatment ventilation.
(§4) Benzoxaborole Compound A or Compound B was dissolved in acetone and dispensed onto a 60 mm Whatman #1 filter paper disk using a pipette. The acetone was permitted to evaporate for five minutes before the disk was placed on a watch glass in each chamber.
(§5) A 12% CO2 headspace treatment was then established in the chamber by permitting 10 grams (g) of crushed dry ice placed in a weigh boat in the chamber to evaporate in the sealed chamber. However, the bulkhead port of the chamber was loosened to permit the release of internal pressure. Optionally, a fan was used during the initial hours of treatment (i.e., up to about 6 hours of treatment) to ensure uniform treatment exposure of fruits and plates.
(§6) Untreated controls and CO2 treated chambers contained an acetone-treated disk with similar evaporation for five minutes. CO2 and O2 levels in the chamber were monitored using a handheld gas detector (Dansensor Checkpoint II; P/N 600111, Ringsted, Denmark). Temperature and relative humidity were also monitored within the chamber using data loggers (Onset HOBO; P/N U12-013, Bourne, MA).
(§7) The chamber for all in vitro and in vivo experiments was held at room temperature (i.e., from about 21° C. to about 23° C.) typically for about 3.5 days (i.e., about 84 hours) of treatment exposure. Chambers were then vented. After an additional 2-3 days with the chamber at room temperature, post-treatment radial growth (in mm) of each in vitro pathogen (see Examples 1-7, Tables 1-7) was measured on the inoculated plates using electronic calipers (Mitutoyo, P/N: CD-6-CX, Aurora, IL). In addition, the point of inoculation on fruits was assessed for indication of in vivo disease incidence (e.g., yes or no) and severity of disease incidence (see Examples 8-16, Tables 8-16). Disease severity was rated on a scale ranging from 0 to 4, where “0” indicated no disease severity, “1” indicated minimal disease severity, “2” indicated medium disease severity, “3” indicated high disease severity, and “4” indicated exceptionally high disease severity. […]

[2] = system: Botrytis cinerea (BOTRCI) on strawberries; assay: as above
From the text: as §1, §2, §3, §4, §5, §6, §7

[3] = system: Botrytis cinerea (BOTRCI); assay: In vitro fungal growth on inoculated agar plates, benzoxaborole and CO2 chamber treatment; format: cell-based
From the text: as §1
(§8) In vitro and in vivo experiments were performed concurrently in triple replicates (i.e., triplicate) unless otherwise noted. For in vitro experiments, a single 6-well microtiter plate or three, 10-cm petri plates each containing half strength Potato Dextrose Agar were prepared. Each well or plate was inoculated with 1 microliter (μL) of 1×10^5 spores/ml of the appropriate pathogenic spore suspension (e.g., Botrytis cinerea, BOTRCI; Penicillium expansum, PENIEX; Mucor piriformis, MUCOPI; Fusarium sambucinum FUSASA; or Aspergillus brasiliensis, ASPEBR). The inoculated microtiter or petri plates were then sealed with a breathable film (AeraSeal; P/N: B-100, Excel Scientific, Victorville, CA).
as §3, §4, §5, §6, §7

[4] = system: Aspergillus brasiliensis (ASPEBR); assay: as above; format: cell-based
From the text: as §1, §8, §3, §4, §5, §6, §7

[5] = system: Botrytis cinerea (BOTRCI) on table grapes; assay: In vivo disease severity on wound-inoculated table grapes, benzoxaborole and CO2 chamber treatment
From the text: as §1
(§9) Similarly, table grape fruits were also tested in vivo. More specifically, 16-20 table grapes per repetition were washed and inoculated with pathogens (as described above for the strawberries). However, an ethanol-sterilized push pin, rather than a T15 screwdriver, was used to wound the stem-end of the grapes. The grapes were inoculated in the wound, and then arranged inside a 1-pint clamshell.
as §3, §4, §5, §6, §7

[6] = system: Penicillium expansum (PENIEX) on table grapes; assay: as above
From the text: as §1, §9, §3, §4, §5, §6, §7

[7] = Table 5, compound 0.14 mg/L + 12% CO2, Colby equation E=x+y−x*y/100
[8] = Table 5, compound 0.14 mg/L + 12% CO2, evaluated 2 days after treatment, 6-well plate, fan first 6 hours, >90% R.H.
[9] = Table 5, compound alone 0.14 mg/L, evaluated 2 days after treatment, 6-well plate, fan first 6 hours, >90% R.H.

`OB1OCc2cc(F)ccc21` [Compound A] was tested. Which “Colby Calculation” value ([1]; Table 10, compound 0.14 mg/L + 12% CO2, Colby equation E=x+y−x*y/100) did it give?
Its value is 106.8.

And the “Growth (Severity, 0 to 4) Cmpd + 12% CO2” value ([1]; Table 10, compound 0.14 mg/L + 12% CO2, evaluated 2 days after treatment, fan first 6 hours, >90% R.H.)?
Its value is 0.2.

What about the “Growth (Severity, 0 to 4) Cmpd” value ([1]; Table 10, compound alone 0.14 mg/L, evaluated 2 days after treatment, fan first 6 hours, >90% R.H.) of the same molecule?
The value was 0.5.

And the “Colby Calculation” value ([2]; Table 8, compound 0.14 mg/L + 12% CO2, Colby equation E=x+y−x*y/100)?
Its value is 176.2.

What about the “Growth (Severity, 0 to 4) Cmpd + 12% CO2” value ([2]; Table 8, compound 0.14 mg/L + 12% CO2, evaluated 2 days after treatment, 4 replicates, fan first 6 hours, >90% R.H.) of the same molecule?
Its value is 0.4.

And the “Growth (Severity, 0 to 4) Cmpd” value ([2]; Table 8, compound alone 0.14 mg/L, evaluated 2 days after treatment, 4 replicates, fan first 6 hours, >90% R.H.)?
The value was 2.1.

What about the “Colby Calculation” value ([2]; Table 9, compound 0.14 mg/L + 12% CO2, Colby equation E=x+y−x*y/100) of the same molecule?
Its value is 107.6.

And the “Growth (Severity, 0 to 4) Cmpd + 12% CO2” value ([2]; Table 9, compound 0.14 mg/L + 12% CO2, evaluated 3 days after treatment, fan first 6 hours, >90% R.H.)?
The value was 0.8.

And the “Growth (Severity, 0 to 4) Cmpd” value ([2]; Table 9, compound alone 0.14 mg/L, evaluated 3 days after treatment, fan first 6 hours, >90% R.H.)?
Its value is 1.1.

And the “Colby Calculation” value ([2]; Table 11, compound 0.14 mg/L + 12% CO2, Colby equation E=x+y−x*y/100)?
Its value is 109.0.

And the “Growth (Severity, 0 to 4) Cmpd + 12% CO2” value ([2]; Table 11, compound 0.14 mg/L + 12% CO2, evaluated 2 days after treatment, fan first 6 hours, >90% R.H.)?
Its value is 0.8.

And the “Growth (Severity, 0 to 4) Cmpd” value ([2]; Table 11, compound alone 0.14 mg/L, evaluated 2 days after treatment, fan first 6 hours, >90% R.H.)?
Its value is 1.4.

And the “Colby Calculation” value ([2]; Table 12, compound 0.14 mg/L + 12% CO2, Colby equation E=x+y−x*y/100)?
The value was 107.9.

And the “Growth (Severity, 0 to 4) Cmpd + 12% CO2” value ([2]; Table 12, compound 0.14 mg/L + 12% CO2, evaluated 2 days after treatment, fan first 6 hours, >90% R.H.)?
The value was 0.4.

And the “Growth (Severity, 0 to 4) Cmpd” value ([2]; Table 12, compound alone 0.14 mg/L, evaluated 2 days after treatment, fan first 6 hours, >90% R.H.)?
Its value is 0.7.

And the “Colby Calculation” value ([2]; Table 13, compound 0.14 mg/L + 12% CO2, Colby equation E=x+y−x*y/100)?
Its value is 163.4.

What about the “Growth (Severity, 0 to 4) Cmpd + 12% CO2” value ([2]; Table 13, compound 0.14 mg/L + 12% CO2, evaluated 3 days after treatment, fan run continuously) of the same molecule?
Its value is 1.4.

What about the “Growth (Severity, 0 to 4) Cmpd” value ([2]; Table 13, compound alone 0.14 mg/L, evaluated 3 days after treatment, fan run continuously) of the same molecule?
Its value is 2.4.

And the “Colby Calculation” value ([2]; Table 14, compound 0.0044 mg/L + 12% CO2, Colby equation E=x+y−x*y/100)?
Its value is 114.8.

What about the “Growth (Severity, 0 to 4) Cmpd + 12% CO2” value ([2]; Table 14, compound 0.0044 mg/L + 12% CO2, evaluated 3 days after treatment, fan continuous) of the same molecule?
The value was 3.2.

And the “Colby Calculation” value ([2]; Table 14, compound 0.0088 mg/L + 12% CO2, Colby equation E=x+y−x*y/100)?
The value was 502.5.

What about the “Growth (Severity, 0 to 4) Cmpd + 12% CO2” value ([2]; Table 14, compound 0.0088 mg/L + 12% CO2, evaluated 3 days after treatment, fan continuous) of the same molecule?
The value was 0.6.

What about the “Growth (Severity, 0 to 4) Cmpd” value ([2]; Table 14, compound alone 0.0044 mg/L, evaluated 3 days after treatment, fan continuous) of the same molecule?
The value was 3.4.

And the “Growth (Severity, 0 to 4) Cmpd” value ([2]; Table 14, compound alone 0.0088 mg/L, evaluated 3 days after treatment, fan continuous)?
Its value is 3.3.

What about the “Colby Calculation” value ([3]; Table 1, compound 0.14 mg/L + 12% CO2, Colby equation E=x+y−x*y/100) of the same molecule?
Its value is 165.4.

And the “Growth (diameter, mm) Cmpd + 12% CO2” value ([3]; Table 1, compound 0.14 mg/L + 12% CO2, evaluated 2 days after treatment completion, 6-well microtiter plate, 4 replicates, fan first 6 hours)?
The value was 0.0 mm.

What about the “Growth (diameter, mm) Cmpd” value ([3]; Table 1, compound alone 0.14 mg/L, evaluated 2 days after treatment completion, 6-well microtiter plate, 4 replicates, fan first 6 hours) of the same molecule?
Its value is 16.3 mm.

And the “Colby Calculation” value ([3]; Table 3, compound 0.14 mg/L + 12% CO2, Colby equation E=x+y−x*y/100)?
The value was 101.2.

And the “Growth (diameter, mm) Cmpd + 12% CO2” value ([3]; Table 3, compound 0.14 mg/L + 12% CO2, evaluated 2 days after treatment, 6-well microtiter plate, fan first 6 hours, >90% R.H.)?
Its value is 4.5 mm.

What about the “Growth (diameter, mm) Cmpd” value ([3]; Table 3, compound alone 0.14 mg/L, evaluated 2 days after treatment, 6-well microtiter plate, fan first 6 hours, >90% R.H.) of the same molecule?
Its value is 5.5 mm.

What about the “Colby Calculation” value ([3]; Table 4, compound 0.14 mg/L + 12% CO2, Colby equation E=x+y−x*y/100) of the same molecule?
The value was 104.3.

What about the “Growth (diameter, mm) Cmpd + 12% CO2” value ([3]; Table 4, compound 0.14 mg/L + 12% CO2, evaluated 2 days after treatment completion, 6-well microtiter plate, fan first 6 hours) of the same molecule?
Its value is 0.0 mm.

What about the “Growth (diameter, mm) Cmpd” value ([3]; Table 4, compound alone 0.14 mg/L, evaluated 2 days after treatment completion, 6-well microtiter plate, fan first 6 hours) of the same molecule?
The value was 1.5 mm.

And the “Colby Calculation” value [3, 7]?
The value was 102.9.

What about the “Growth (diameter, mm) Cmpd + 12% CO2” value [3, 8] of the same molecule?
Its value is 3.0 mm.

And the “Growth (diameter, mm) Cmpd” value [3, 9]?
Its value is 3.6 mm.

What about the “Colby Calculation” value ([3]; Table 6, compound 0.14 mg/L + 12% CO2, Colby equation E=x+y−x*y/100) of the same molecule?
The value was 108.2.

What about the “Growth (diameter, mm) Cmpd + 12% CO2” value ([3]; Table 6, compound 0.14 mg/L + 12% CO2, evaluated 3 days after treatment, 10 cm petri plates, fan continuous) of the same molecule?
The value was 6.4 mm.

What about the “Growth (diameter, mm) Cmpd” value ([3]; Table 6, compound alone 0.14 mg/L, evaluated 3 days after treatment, 10 cm petri plates, fan continuous) of the same molecule?
Its value is 13.2 mm.

And the “Colby Calculation” value [4, 7]?
Its value is 108.3.

And the “Growth (diameter, mm) Cmpd + 12% CO2” value [4, 8]?
Its value is 0.0 mm.

What about the “Growth (diameter, mm) Cmpd” value [4, 9] of the same molecule?
Its value is 2.6 mm.

What about the “Colby Calculation” value ([5]; Table 15, compound 0.035 mg/L + 12% CO2, Colby equation E=x+y−x*y/100) of the same molecule?
The value was 115.2.

What about the “Growth (Severity, 0 to 4) Cmpd + 12% CO2” value ([5]; Table 15, compound 0.035 mg/L + 12% CO2, evaluated 1 day after treatment, fan continuous) of the same molecule?
The value was 0.7.

And the “Growth (Severity, 0 to 4) Cmpd” value ([5]; Table 15, compound alone 0.035 mg/L, evaluated 1 day after treatment, fan continuous)?
The value was 0.9.

What about the “Colby Calculation” value ([6]; Table 16, compound 0.035 mg/L + 12% CO2, Colby equation E=x+y−x*y/100) of the same molecule?
Its value is 108.2.

What about the “Growth (Severity, 0 to 4) Cmpd + 12% CO2” value ([6]; Table 16, compound 0.035 mg/L + 12% CO2, evaluated 1 day after treatment, fan continuous) of the same molecule?
The value was 1.3.

And the “Growth (Severity, 0 to 4) Cmpd” value ([6]; Table 16, compound alone 0.035 mg/L, evaluated 1 day after treatment, fan continuous)?
The value was 1.8.
